Data on nine molecules can be found in US11300640B2, “Protein reporters for ultrasensitive detection methods” (The Trustees of the University of Pennsylvania, priority 2017, dated 2022).

A short description of series [1]: 129Xe hyper-CEST NMR of purified MBP and MBP mutants. Particulars: for T1off / T1on / saturation contrast: 100 nM WT MBP.
From the text: Briefly, HP ^129Xe was generated using the spin-exchange optical pumping (SEOP) method with a home-built ^129Xe polarizer based on the IGI.Xe.2000 commercial model by GE. A Shark 65 W tunable ultra-narrow band diode laser (OptiGrate) set to 795 nm was used for optical pumping of Rb vapor. A gas mixture of 88% helium, 10% nitrogen, and 2% natural abundance xenon (Linde Group, N.J.) was used as the hyperpolarizer input. ^129Xe hyperpolarization level was roughly 10-15%. For each data point in the hyper-CEST z-spectra, HP ^129Xe was bubbled into the NMR tube through capillaries for 20 seconds, followed by a 3-second delay to allow bubbles to collapse. A Dsnob saturation pulse with 690 Hz bandwidth was used. Pulse length tpulse=3.80 ms, field strength B1, max=77 μT, number of pulses npulse=400, saturation time Tsat=1.52 s. NMR experiments were performed using a Bruker BioDRX 500 MHz NMR spectrometer and 10-mm PABBO probe, at 300 K. A 900 hard pulse of this probe has a pulse length of 22 μs. Unless otherwise noted, the protein concentration used was 80 μM, with 0.1% (v/v) Pluronic L81 (Aldrich) added to mitigate foaming.
Briefly, hyperpolarized (hp)^129Xe was generated using the spin-exchange optical pumping (SEOP) method with a home-built ^129Xe polarizer based on the IGI.Xe.2000 commercial model by GE. A Shark 65 W tunable ultra-narrow band diode laser (OptiGrate) set to 795 nm was used for optical pumping of Rb vapor. A gas mixture of 88% helium, 10% nitrogen, and 2% natural abundance xenon (Linde Group, N.J.) was used as the hyperpolarizer input. ^129Xe hyperpolarization level was roughly 10-15%. For each data point in the hyper-CEST z-spectra, hp ^129Xe was bubbled into the NMR tube through capillaries for 20 s, followed by a 3-s delay to allow bubbles to collapse. A d-SNOB saturation pulse with 690 Hz bandwidth was used. Pulse length, tpulse=3.80 ms; field strength B1,max=77 μT; number of pulses, npulse=400; saturation time, Tsat=1.52 s. NMR experiments were performed using a Bruker BioDRX 500 MHz NMR spectrometer and 10-mm PABBO probe, at 300 K. A 900 hard pulse of this probe has a pulse length of 22 μs. Unless otherwise noted, the protein concentration used was 80 μM, with 0.1% (v/v) Pluronic L81 (Aldrich) added to mitigate foaming. […] Pulse length, Tpulse=1.0496 ms; field strength, B1max=279 μT. Both on-resonance and off-resonance data were fitted with first-order exponential decay curves.
Details of series [2]: Ka of Xe binding / Ka for Xe binding to MBP+βCD: unit not given here. Particulars: cited from earlier work; for xenon association constant: room temperature.
Series [3] in a line: MBP fluorescence quenching by maltose. Format: binding. The settings on record: 4 μM MBP, 400 μM maltose, 20 mM HEPES pH 7.4, excitation 280 nm.
Method: Fluorescence spectra were obtained on a Tecan Infinite M1000 PRO microplate reader using black 96 well flat-bottom microplates (Grenier Bio-One). […] Excitation was at 280 nm and emission was scanned from 300 to 400 nm in 1 nm increments. All fluorescence assays were performed in triplicate and averaged. Fluorescence spectra were background corrected by subtracting the fluorescence spectrum of the well solution in the absence of protein.
A further series has as its system BL21(DE3) E. coli. Kind of series: Hyper-CEST of MBP expressed in E. coli (pET-MBP plasmid). The settings on record: for Contrast, corrected: contrast of non-induced E. coli subtracted; for T1off / T1on: OD600=9; for saturation contrast: OD600=9, +95/−95 ppm. Format: cell-based.
The target in a further series is MBP (Escherichia coli, UniProt P0AEX9). Particulars: binding to MBP; cited from earlier work.
Series [4] in a line: 129Xe hyper-CEST NMR of GFP-RBP mutants. The method, then: To evaluate whether GFP-RBP(L19A) reports any Xe hyper-CEST contrast, a hyper-CEST z-spectrum was acquired from 10 μM GFP-RBP(L19A) in the presence and absence of ribose. Multiple selective Dsnob-shaped saturation pulses were scanned over the chemical shift range of 93-358 ppm in 5 ppm steps, and the ^129Xe(aq) signal was measured as a function of saturation pulse offset (FIG. 55).
To assess the detection sensitivity of GFP-RBP(L19A), time-dependent saturation transfer experiments were performed by measuring Xe(aq) polarization as a function of saturation time. Shaped saturation pulses were applied at the chemical shift of Xe@RBP(L19A)closed, and the residual aqueous ^129Xe signal after saturation transfer was measured as an on-resonance CEST response. Saturation frequencies of Dsnob-shaped pulses were positioned at +42.5 and −42.5 ppm, referenced to the Xe(aq) peak, for on- and off-resonance, respectively. The pulse length was 1.727 ms, and the field strength was 170 μT. The normalized difference between on- and off-resonance signals was represented by the saturation contrast.

A short description of series [5]: bla hydrolase activity assay pre- and post-CEST. Particulars: 5 nM enzyme, 450 μM nitrocefin, 50 mM Tris pH 7.4, 5% DMSO. Format: biochemical. Here is the method: The hydrolysis of nitrocefin was monitored at A482 using an Infinite M1000 Pro plate reader (Tecan).
Product formation was monitored at A482 using an Infinite M1000 Pro plate reader (Tecan). The assays were performed in triplicate for pre- and post-hyper CEST bla(I263A) and bla(I279N) samples.

For series [6] the following is noted: RBP from E. coli; read-out: Kd for ribose; cited from earlier work.
Where [7] appears, read: induced E. coli with maltose, 6±4 μM MBP.
The mark [8] stands for this setting: induced E. coli without maltose, 15±6 μM MBP.

Positions count from the first letter of the chain named. In names and notes the source's numbering stands. Entries after “also recorded” stand apart in the source; their conditions may differ.

From the text for BL21(DE3) E. coli: All cell solutions were normalized to OD600=9. Saturation frequencies of Dsnob-shaped pulses were positioned at +95 ppm and −95 ppm, referenced to the Xe(aq) peak, for on- and off-resonance, respectively. Pulse length, τpulse=1.0496 ms; field strength, B1,max=279 μT. Both on-resonance and off-resonance data were fitted with first-order exponential decay curves.

With maltose binding protein [MBP], the T1off is 44 ± 3 s in series [1] (0 μM maltose); 41 ± 3 s in series [1] (0.1 μM maltose); 43 ± 1 s in series [1] (0.3 μM maltose); 39 ± 1 s in series [1] (0.5 μM maltose); 50 ± 1 s in series [1] (1 μM maltose); 46 ± 2 s in series [1] (3 μM maltose). Also, the T1off in series [1] (1 mM maltose) was 55 ± 3 s; in the series on BL21(DE3) E. coli (setting [7]) it was 16.7 ± 0.6 s; in the series on BL21(DE3) E. coli (setting [8]), 9.3 ± 0.3 s. Besides, the T1on worked out at 41 ± 2 s in series [1] (0 μM maltose); 34 ± 1 s in series [1] (0.1 μM maltose); 35 ± 1 s in series [1] (0.3 μM maltose); 26.3 ± 0.9 s in series [1] (0.5 μM maltose); 32.7 ± 0.7 s in series [1] (1 μM maltose); 26 ± 1 s in series [1] (3 μM maltose). The T1on worked out at 21.8 ± 0.6 s in series [1] (1 mM maltose); 21.8 ± 0.7 s in series [1] (1 mM maltose, listed as WT MBP); 4.94 ± 0.10 s with BL21(DE3) E. coli (setting [7]); 5.35 ± 0.17 s in the series with BL21(DE3) E. coli (setting [8]). Also, the saturation contrast stood at 0.022±0.004 in series [1] (0 μM maltose, pH 7.2 PBS, 300 K); 0.050±0.007 in series [1] (0.1 μM maltose); 0.05±0.01 in series [1] (0.3 μM maltose); 0.11±0.01 in series [1] (0.5 μM maltose); 0.118±0.007 in series [1] (1 μM maltose); 0.161±0.004 in series [1] (3 μM maltose). The values for the saturation contrast (in series [1] (1 mM maltose); in the series on BL21(DE3) E. coli (setting [7]); with BL21(DE3) E. coli (setting [8])) were 0.26±0.01, 0.60±0.02 and 0.40±0.06, respectively. In series [1] (100 nM protein sensor), the “lowest maltose concentration readily detected (detection threshold)” value was 100 nM. The “downfield saturation response in z-spectrum” value in series [1] (80 μM MBP, 1 mM β-cyclodextrin) was “no downfield Xe@MBP peak; also recorded: no downfield saturation response”. Also, the “saturation response in z-spectrum” value in series [1] (80 μM protein, without maltose) is given as “only a single saturation response”. Also, the “Ka for Xe binding to MBP+maltose” value in series [2] (1H-15N HSQC NMR) was “too low to measure”. For the same molecule, the “Ka for Xe binding to MBP+βCD” value in series [2] (1H-15N HSQC NMR) was 20±10. Besides, the “Ka of Xe binding” value in series [2] (MBP in the open conformation, HSQC NMR) is 20±10. Also, in series [2] (experimentally determined literature values), the “Xe binding affinity (association constant)” value was 20 ± 10 M⁻¹. In series [3], the “magnitude of fluorescence quenching by maltose” value is 22%. Besides, the “Contrast per μM MBP” value came to 0.05 ± 0.03 with BL21(DE3) E. coli (E. coli with maltose) and 0.013 ± 0.005 in the series with BL21(DE3) E. coli (E. coli without maltose). Further, the “Contrast, corrected” value in the series on BL21(DE3) E. coli (E. coli with maltose) was 0.28; in the series with BL21(DE3) E. coli (E. coli without maltose), 0.19. Further, in the series with BL21(DE3) E. coli (background subtracted, normalized to MBP concentration), the “increase in observed CEST contrast generated by maltose” value was determined as 3.7 fold.

As for myoglobin [reference compound], the xenon association constant result in series [2] is listed as “around 200 M^−1”.

The term Kd denotes the concentration at which binding is half-saturated. Turning to `OC[C@H]1O[C@@H]2O[C@H]3[C@H](O)[C@@H](O)[C@@H](O[C@H]4[C@H](O)[C@@H](O)[C@@H](O[C@H]5[C@H](O)[C@@H](O)[C@@H](O[C@H]6[C@H](O)[C@@H](O)[C@@H](O[C@H]7[C@H](O)[C@@H](O)[C@@H](O[C@H]8[C@H](O)[C@@H](O)[C@@H](O[C@H]1[C@H](O)[C@H]2O)O[C@@H]8CO)O[C@@H]7CO)O[C@@H]6CO)O[C@@H]5CO)O[C@@H]4CO)O[C@@H]3CO` [βCD, β-cyclodextrin], the Kd at MBP is 1800 nM.

hemoglobin [reference compound]: the xenon association constant entry in series [2] is on record as “around 200 M^−1”.

For “GFP-RBP(L19A): fusion of GFP and ribose binding protein with L19A mutation (SEQ ID NO: 46)”, the “saturation contrast (maximum)” value in series [4] (100 nM GFP-RBP(L19A), pulses at +42.5/−42.5 ppm) was determined as 0.30±0.01. The “saturation response in z-spectrum” value in series [4] (10 μM protein, unliganded (no ribose)) is listed as “only a single saturation response”.

B1: I263A: bla having an I263A mutation (SEQ ID NO: 5) (protein)
chain: MSIQHFRVALIPFFAAFCLPVFAHPETLVKVKDAEDQLGARVGYIELDLNSGKILESFRPEERFPMMSTFKVLLCGAVLSRVDAGQEQLGRRIHYSQNDLVEYSPVTEKHLTDGMTVRELCSAAITMSDNTAANLLLTTIGGPKELTAFLHNMGDHVTRLDRWEPELNEAIPNDERDTTMPAAMATTLRKLLTGELLTLASRQQLIDWMEADKVAGPLLRSALPAGWFIADKSGAGERGSRGIIAALGPDGKPSRIVVAYTTGSQATMDERNRQIAEIGASLIKHW
modifications: TEM-1 beta-lactamase with a I263A mutation (mutation at residue 259)
Regarding B1, in series [5] (listed as bla(I263A)), the “Initial Rate, after CEST” value came to 0.153±0.009 A482 min^−1 and the “Initial Rate, before CEST” value was 0.142±0.002 A482 min^−1.

B2: I279N: bla having an I279N mutation (SEQ ID NO: 6) (protein)
chain: B1 chain with A259I, I275N
modifications: TEM-1 beta-lactamase with a I279N mutation (mutation at residue 275)
With B2, in series [5], the “Initial Rate, after CEST” value is recorded as 0.047 ± 0.002 A482 min^−1 and the “Initial Rate, before CEST” value was determined as 0.044 ± 0.003 A482 min^−1.

B3: ribose binding protein (protein)
chain: KDTIALVVSTLNNPFFVSLKDGAQKEADKLGYNLVVLDSQNNPAKELANVQDLTVRGTKILLINPTDSDAVGNAVKMANQANIPVITLDRQATKGEVVSHIASDNVLGGKIAGDYIAKKAGEGAKVIELQGIAGTSAARERGEGFQQAVAAHKFNVLASQPADFDRIKGLNVMQNLLTAHPDVQAVFAQNDEMALGALRALQTAGKSDVMVVGFDGTPDGEKAVNDGKLAATIAQLPDQIGAKGVETADKVLKGEKVQAKYPVDLKLVVKQ
modifications: Native amino acid sequence of RBP for expression in E. coli
With B3, in series [6], the Kd is 130 nM.

B4: RBP(L19A): ribose binding protein having a L19A mutation (SEQ ID NO: 44) (protein)
chain: B3 chain with L19A
modifications: Amino acid sequence of RBP(L19A)
For B4, in series [2] (1H-15N HSQC NMR), the “xenon binding affinity, closed conformation” value is 40 ± 20 M⁻¹ and the “xenon binding affinity, open conformation” value was 70 ± 30 M⁻¹.
